3 compounds from US5840893A, “Compounds for treating infectious diseases” (priority 1996, dated 1998) can be followed below.

“Also recorded” adds a separate entry of the source. Like-named read-outs stand apart in the source and are kept apart here.

In one series the test system is HIV-1. Description: Inhibition of HIV-1 replication in cultured macrophages (Table I). The class given is cell-based. As to conditions: Human immunodeficiency virus 1, Macrophage; 50% inhibition of viral growth, RT or p24, macrophages. The protocol: A quantitative measurement of the activity of the compounds of the invention to block the replication of HIV-1 in non-dividing cells can be determined by culture of a macrophage-tropic strain of HIV-1 on peripheral blood-derived macrophages. The cells are cultured for 5-6 days prior to infection in a medium consisting of DMEM supplemented with 10% type A/B human serum and 200 U/ml Macrophage Colony Stimulating Factor, with half the medium changed after 3 days, to reach a density of about 10^6 cells per 5 ml well. A macrophage-tropic viral stock may be grown on these cells. The concentration of infectious particles in the stock is estimated by measurement of p24 antigen concentration.
To test the effect of compounds of the invention on HIV- 1 infection in the above-described culture system, the medium is removed and replaced with medium containing HIV-1 at a concentration of 1 ng of p24 (10^4 TCID50 /ml (TCID=tissue culture infectious doses)) and a known concentration of the compound of the invention (the inhibitor). After 24 hours, the cultures are washed to remove non-adherent virus and the culture is re-fed with medium containing the inhibitor at the desired concentration. The amount of replication of HIV-1 is estimated by an assay of the reverse transcriptase activity or by an assay of the concentration of p24 antigen in the culture medium every 2-3 days throughout the post-infection period. In a preferred embodiment the anti-HIV potency of the candidate drug is measured by comparison of the concentration of reverse transcriptase (RT) or of p24 antigen in the medium of the treated and control cultures at the time of the peak of these values in non-treated control cultures, that is about day 5 or 6 post-infection. Repetition at various levels of inhibitor allows for the calculation of the concentration of inhibitor that achieves 50% inhibition of viral growth, IC50. Table I discloses the IC50 of various inhibitors.

The next series concerns mice. Description: Toxicity study: median lethal dose in mice, i.p. It counts as in vivo. The protocol:
The doses of compounds of the invention found to be lethal to 50% of the mice (LD50) were determined by intraperitoneal injection of groups of five animals with increasing doses of each compound. CNI-0294 was administered from 0, 2, 10, 20, 40, 80, 160, 320, 640, 1280 mg/kg in 0.5 ml of water/HCl; CNI-1594 at 0, 2.4, 5, 10, 20, 40, 80 mg/kg in 0.5 ml of water/HCl; CNI-1794 at 0, 20, 50, 80 mg/kg in 0.5 ml of water/HCl; and CNI-1894 at 0, 10, 20, 40, 80, 240, 480, 960 mg/kg in water/HCl. […] The percentage of animals in each group which died were utilized to calculate the LD50 by non-linear curve fitting with the Enzfit software (Elsevier Bioscience; Cambridge, UK) programmed with the Chou equation (Chou 1976, J Theor Biol 39:253-276)).
The compounds (FIGS. 4A-E), were screened for toxicity via a modified LD50 assay procedure as described above in an outbred strain of mice.

A further series in a line: in vitro. The class given is in vitro ADME, mouse (ND4 Swiss Webster). The conditions noted are these: for number of metabolites: mouse liver post-mitochondrial supernatant, NADPH; for metabolised at 1 h: mouse, liver post-mitochondrial supernatant, 60 min incubation, by peak area, read-out: drug altered (metabolic conversion). The protocol:
Several female ND4 Swiss Webster mice were euthanized by carbon dioxide inhalation and the livers excised and rinsed with ice cold phosphate buffered saline (pH 7.4). The livers were minced, gently homogenized in 50 mM phosphate buffer (pH 7.4) with a Dounce homogenizer, and centrifuged at 9600×g for 20 min. The post-mitochondrial supernatant was kept, glycerol added to 20%, and frozen at -70° C. in 1.0 ml aliquots until used. For each incubation, 1.0 ml of a 1.0 mg/ml drug solution was added to 3.0 ml of 50 mM phosphate buffer (pH 7.4), 1.0 ml of 2 mg/ml NADPH in 50 mM phosphate (pH 7.4), and 1.0 ml of the post-mitochondrial supernatant. Five hundred μl of each incubate was then immediately transferred to an ice-cold tube to provide the zero-time sample, and addition 500 μl aliquots removed to ice-cold tubes at 8, 15, 30, and 60 min. The samples were then extracted, and analyzed by HPLC as described in section 7.1. Control incubations were also performed where drug or post-mitochondrial supernatant was omitted. […] Peaks in the CNI compound incubations which increased over time, and were not present in control samples lacking the enzyme preparation were treated as putative metabolites.

Series [1] relates to Plasmodium falciparum clone Dd2. Nature of the series: Antimalarial activity in vitro, hypoxanthine incorporation, clone Dd2. It counts as cell-based. As to conditions: for IC50: Plasmodium falciparum. The protocol:
(§1) The antimalarial activity of the compounds was determined essentially as described in Desjardins et al. supra. Fifty Al of various concentrations of a compound of the invention, chloroquine, or pyrimethamine were added to the wells of microtiter plates, followed by 200 Al of ring-stage, synchronized, P. falciparum-infected erythrocytes (final hematocrit=1.5%, final parasitemia=1-5%). The plates were incubated for 24 hr in a candle jar kept at 37° C., and then 25 μl of [^3 H]-hypoxanthine (Amersham, Arlington Heights, Ill.; 2.5 μl Ci/well) was added. The plates were then incubated for a further 24 hr, before harvesting onto Unifilter-96 GF/C filter-microplates (Packard; Meriden, Conn.). Twenty-five μl of Microscint scintillation fluid (Packard) was added to each well of the filter-microplate, which was subsequently counted in a Top-count microplate scintillation counter (Packard). The percent of [^3 H] -hypoxanthine uptake relative to control infect-erythrocytes was used to determine the IC50 value for the compounds by non-linear regression for LD50 determination.
The Dd2 clone of P. falciparum, which was both chloroquine and pyrimethamine resistant, was utilized to compare the antimalarial activity of the remaining CNI compounds (Table VIII).

For series [2] the following is noted: for Clearance: Table IV, measured in a 25 gr mouse.
Protocol: (§2) Standard addition curves for each test compound were constructed by adding increased amounts of drug to mouse or human A^+ plasma (Long Island Blood Services; Melville, N.Y.). […] The eluted sample was reduced to dryness in a rotary evaporator and resuspended in 1.0 ml Buffer A.
(§3) Female ND4 Swiss Webster mice (21-24 g) were obtained from Harlan Sprague Dawley (Indianapolis, Ind.) and randomly placed in groups of five in cages with free access to food and water. […] The other CNI compounds were administered intraperitoneally or by oral gavage as a solution in water titrated with sufficient HCl to dissolve the drug. At various time points, ranging from 5 min to 4 days, a single group of animals was euthanized by carbon dioxide inhalation and bled by cardiac puncture using heparin as an anticoagulant. The blood from the five mice in the group was pooled and centrifuged at 14000×g for 10 min. The volume of plasma was measured, and equal volume of Buffer A added, and the mixture extracted and analyzed as described above, except that the dried eluates were resuspended in 200 μl Buffer A and 100 μl was injected onto the high performance liquid chromatography (HPLC) system.
(§4) The area under the plasma concentration-time curve (AUC) was determined, and bioavailability was measured as AUCoral /AUCi.p.. […] The volume of distribution (VD) was calculated as dose/B, and the total clearance rate (Cltot) calculated as β*VD. Cmax and tmax are the maximal plasma concentration and time of this measurement, respectively.
Another series is described as follows: in vivo. The conditions noted are these: mouse, plasma, ip.
Series [3] deals with Plasmodium falciparum clone D10. Description: Antimalarial activity in vitro, hypoxanthine incorporation, clone D10. The class given is cell-based. As to conditions: clone D10, n = 2, read-out: Pyrimethamine IC50. The protocol:
as §1

The subject of series [4] is Plasmodium falciparum clone FCR-3. Nature of the series: Antimalarial activity in vitro, hypoxanthine incorporation, clone FCR-3. It counts as cell-based. The conditions noted are these: FCR3, clone FCR-3, n = 2, read-out: Pyrimethamine IC50. As to the method: as §1
Series [5] has as its system Plasmodium falciparum clone HB3. Description: Antimalarial activity in vitro, hypoxanthine incorporation, clone HB3. The conditions noted are these: clone HB3, n = 2, read-out: Pyrimethamine IC50. The class given is cell-based. The protocol:
as §1

Series [6] deals with Plasmodium falciparum clone W2mef. Nature of the series: Antimalarial activity in vitro, hypoxanthine incorporation, clone W2mef. The class given is cell-based. The conditions noted are these: read-out: Pyrimethamine IC50. As to the method:
as §1

[7] abbreviates: DD2, read-out: IC50 ± standard deviation.

Protocol for in vivo: as §2, §3, §4

Usually IC50 stands for the concentration that inhibits the measured activity by half. The CL/F is clearance divided by bioavailability, as obtained after extravascular dosing. For the compound `CC(=O)c1cc(Nc2cc(C)nc(N)n2)cc(C(C)=O)c1` [Compound No. 11, 2-amino-4-(3,5-diacetylphenyl)amino-6-methylpyrimidine], it took 0.05 µM to reach half-maximal inhibition in the series on HIV-1 (IC50). Besides, in the series with mice, the “LD50 (median lethal dose)” value is above 160 mg/kg and the tolerability entry is “also well tolerated”. In “in vitro”, the number of metabolites entry was “three minor and one major metabolite”; the metabolised at 1 h is 65.2%. For the same compound, the half-maximal inhibitory concentration (IC50) in series [1] (setting [7]) was 20.3 ± 1.62 µM. In series [1] (clone Dd2), the “fold less active than CNI-0294” value is “approximately 5 fold”. The compound also gave a Clearance in series [2] of 16.50 mL/min. Further, in series [2] (i.p., 50 mg/kg, water), the “A (zero time intercept, distribution phase)” value worked out at 5.22 µg/mL; the “B (zero time intercept, elimination phase)” value came to 0.14 µg/mL; the t1/2α is 0.38 h; the t1/2β is 3.65 h. In series [2] (i.p., 50 mg/kg, water), the α came to 1.83 h⁻¹. Further, in [2] (oral 50 mg/kg), the “time drug was detectable in plasma” value is listed as “at least 6 hr”. The same compound displayed a relative bioavailability in series [2] (oral vs i.p.) of 15%. The Bioavaliability in [2] (oral, 50 mg/kg, water, AUCoral/AUCi.p.) worked out at 0.15. Further, the relative bioavailability in [2] (single 50 mg/kg dose, AUCoral against AUCi.p.) came out at 15%. In the series “in vivo” (50 mg/kg), this compound showed a CL/F of 16.5 mL/min and a k el of 5.28e-05 s⁻¹.
In the case of `CC(=O)c1cccc(Nc2cc(C)nc(N)n2)c1` [Compound No. 15, 4-(3-acetylphenyl)amino-2-amino-6-methylpyrimidine], the IC50 in the series with HIV-1 is 0.015 µM. Besides, in the series with mice, the “LD50 (median lethal dose)” value stood at 49.04 ± 0.08 mg/kg and the tolerability result is “appreciably more lethal”. Moreover, the “signs and time of toxic reactions / death” value in the series with mice (listed as CNI-1594) was “death occurring in minutes and the animals displaying signs of acute neurotoxicity; also recorded: suggested a lethal neurotoxicity”. In addition, in “in vitro”, the number of metabolites entry is “three minor and one major metabolite”; the metabolised at 1 h stood at 11.7%. Also, the IC50 in series [1] (setting [7]) amounted to 23.7 ± 0.59 µM. The “IC50 relative to CNI-1194 and CNI-4594” value in series [1] (clone Dd2) was “equal to that for CNI-1194 or CNI-4594”. Further, in [2], the Clearance was 26.40 mL/min. In series [2] (i.p., 20 mg/kg, water), the “A (zero time intercept, distribution phase)” value was 1.10 µg/mL; the “B (zero time intercept, elimination phase)” value was determined as 0.01 µg/mL; the VD is given as 39.60 L; the t1/2α was 0.32 h. For the same compound, in [2] (i.p., 20 mg/kg, water), the t1/2β was 17.33 h and the α was 2.14 h⁻¹. In the series “in vivo” (20 mg/kg), the CL/F came to 26.4 mL/min and the k el was 1.11e-05 s⁻¹.
Take `CCc1nc(N)nc(N)c1-c1ccc(Cl)cc1` [Pyrimethamine, reference compound]: the IC50 came to 171 ± 24.6 µM in [3]; 104 ± 9.79 µM in series [1] (DD2, read-out: Pyrimethamine IC50); 0.04 ± 0.01 µM in [4]; 8.97 ± 2.75 µM in [5]; 17.8 ± 13.5 µM in series [6].
